In one data set the test system is spinal-ligated rats. It is filed as in vivo, rat. Here is the method: This study aimed to evaluate the analgesic indications of compound C using the Chung model of neuropathic pain in rats. This study was performed at PsychoGenics, Inc., headquartered at 765 Old Saw Mill River Road, Tarrytown, N.Y.
Male Sprague Dawley rats (100-125 g) from Harlan (Indianapolis, Ind.) were used in the study. Upon receipt, rats were assigned unique identification numbers and were group housed with 3 rats per cage in polycarbonate cages with micro-isolator filter tops. All rats were examined, handled, and weighed prior to initiation of the study to assure adequate health and suitability. During the course of the study, 12/12 light/dark cycles were maintained, with lights on at 7:00 am EST. The room temperature was maintained between 20 and 23° C. with a relative humidity maintained around 50%. Chow and water were provided ad libitum for the duration of the study.
All compounds were administered at a dose volume of 5 ml/kg, q.d. for 5 days (Days 17-21 post-surgery). Reference compound: Gabapentin (100 mg/kg; TRC, Lot No. 1-SWM-154-1) was dissolved in 0.5% carboxy-methylcellulose (CMC) in water and administered orally. Test Compound: Compound C (0.25, 0.625, and 1.25 mg/kg; Lot n/a) was dissolved in distilled H2O to a stock concentration (20×), divided into single-use aliquots, and frozen. On each test day, one aliquot was thawed and diluted 20-fold with PBS (pH 7.2), and used as stock for formulation of test doses. Compound C was administered subcutaneously.
Under general anesthesia with continuous inhalation of isoflurane, surgery was performed with aseptic procedures in surgery unit. The skin at the area of the lower lumber and sacral level of the rat was shaved and disinfected with betadine and alcohol. Sterile ophthalmic ointment was used to lubricate the eyes. Animals were observed continuously for the level of anesthesia, testing for the animal's reflex response to tail or paw pinch and closely monitoring the animal's breathing. A heating pad was used to maintain body temperature at 37° C. while the animals recovered from anesthesia. A left longitudinal incision at the level next to the vertebral column was made and the left paraspinal muscles were separated. The transverse process of L6 was removed and nearby connective tissue cleaned to expose L5 and L6 spinal nerves. After the nerves were isolated and clearly visualized, 4-0 silk threads were used to ligate the left L5. The muscles were sutured with 4-0 silk threads and the wound closed by staples. All rats received an analgesic (buprenorphine, 0.05 mg/kg, s.c.) immediately before and 6 hours after surgery. Each rat was monitored until awake and moving freely around the recovery chamber. Animals were then single-housed for the duration of the study. Rats were allowed to recover for 2 weeks after surgery prior to testing.
Withdrawal from a mechanical stimulus was measured by applying von Frey (VF) filaments of ascending bending force to the plantar surface of the hind paws (ipsilateral and contralateral). A positive response was defined as withdrawal from the von Frey filament. Confirmation of the paw withdrawal threshold (PWT) is tested by assessing the response to the filament above and below the withdrawal response.
Rats were brought to the experimental room and allowed to habituate in the room for one hour prior to testing, and acclimated to the observation chambers for 15 minutes prior to taking PWT measurements.
Pre-operative baseline testing: Prior to surgery, all rats were tested using the VF test.
Post-operative baseline testing: On Day 14 following surgery, baseline responses were taken from all surgically-operated rats, and an ipsilateral PWT greater than 4.5 g was used as an exclusion criterion (13 rats excluded). Rats were subsequently balanced and assigned to treatment groups (n=10 per group) based on their post-op PWT values. […]

For data set [1], the system named is mouse embryonic stem cells derived cardiomyocytes (mES-CM). The data set is classed as cell-based.
Where [2] appears, read: baseline of group assigned to 100 mg/kg, mean ± SEM.

Molecules are shown by their SMILES. Entries after “also recorded” stand apart in the source; their conditions may differ.

For `NCC1(CC(=O)O)CCCCC1` [Gabapentin], the “ipsilateral paw withdrawal threshold compared to vehicle, chronic” value in the data set on spinal-ligated rats (100 mg/kg orally q.d. 5 days, Day 21, all time points) was “significantly increased”. Also, the “ipsilateral paw withdrawal threshold compared to vehicle, acute” value in the data set on spinal-ligated rats (100 mg/kg orally, Day 17, data collapsed across 1 and 3 hour time points) was “significantly increased”. For the same molecule, the “time dependence of effect on ipsilateral paw withdrawal threshold, chronic” value with spinal-ligated rats (100 mg/kg orally, Day 21, 1 hr. versus 3 hr. post-administration) is listed as “significantly greater at 1 hr. compared to 3 hr. post-administration”. Further, the “ipsilateral paw withdrawal threshold (PWT), summary” value in the data set with spinal-ligated rats (100 mg/kg, acute or 5-day administration, 1 and 3 hours following administration) is on record as “significantly increased”. Besides, in the data set with spinal-ligated rats (setting [2]), the “Contralateral paw withdrawal threshold prior to drug administration” value amounted to 48.70 ± 5.83 and the “Ipsilateral paw withdrawal threshold prior to drug administration” value is 2.94 ± 0.29. Also, the “signs of sedation or toxicity” value in the data set with spinal-ligated rats (during pretreatment or testing, gabapentin 100 mg/kg orally, compound C 0.25, 0.625, 1.25 mg/kg subcutaneously) is recorded as “not observed”.

With `NC1=N[C@H](O)[C@H]2[C@H]3O[C@]4(O)O[C@@H]([C@@H](O)[C@@]2(N1)[C@@H]4O)[C@]3(O)CO` [TTX, Tetrodotoxin], the “effect of positive control on action potential generation in cardiomyocytes” value in data set [1] is “only the higher dose inhibited action potential generation; also recorded: quite evident; also recorded: significant action”.

Values taken from US8399026B2, “Peptides isolated from spider venom, and uses thereof” (priority 2009, dated 2013).
